In PubChem BioAssay (NCI):
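In this assay, cells in 96-well plates receive the compound at five concentrations for 48 hours. Endpoints are linearly interpolated between the surrounding concentrations. The concentration for 50% growth inhibition is given as GI50. TGI: concentration producing complete growth inhibition.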

Key:
Assay in all cases: NCI anticancer screen, dose series, 48 h
A549 NSCLC = system: A549 NSCLC
ACHN renal = system: ACHN renal
EKVX NSCLC = system: EKVX NSCLC
HCT-15 colon = system: HCT-15 colon
HL-60(TB) leukemia = system: HL-60(TB) leukemia
MOLT-4 leukemia = system: MOLT-4 leukemia
OVCAR-8 ovarian = system: OVCAR-8 ovarian
RXF 393 renal = system: RXF 393 renal
SF-268 CNS = system: SF-268 CNS

Row | SMILES | GI50 (A549 NSCLC) [µM] | TGI (A549 NSCLC) [µM] | GI50 (ACHN renal) [µM] | TGI (ACHN renal) [µM] | GI50 (EKVX NSCLC) [µM] | TGI (EKVX NSCLC) [µM] | GI50 (HCT-15 colon) [µM] | TGI (HCT-15 colon) [µM] | GI50 (HL-60(TB) leukemia) [µM] | TGI (HL-60(TB) leukemia) [µM] | GI50 (MOLT-4 leukemia) [µM] | TGI (MOLT-4 leukemia) [µM] | GI50 (OVCAR-8 ovarian) [µM] | TGI (OVCAR-8 ovarian) [µM] | GI50 (RXF 393 renal) [µM] | TGI (RXF 393 renal) [µM] | GI50 (SF-268 CNS) [µM] | TGI (SF-268 CNS) [µM]
1 | O=C(CC1C(=O)NN(c2ccc(Br)cc2)C1=O)c1cc(O)ccc1O (configuration not stated) | > 50 | > 50 | 14.8 | 49.4 | 27.8 | > 50 | 8.5 | 20 | 23.5 | > 50 | > 50 | > 50 | 18.4 | > 50 | > 50 | > 50 | 29 | > 50
2 | COc1cc(C(=O)CBr)c(OC)cc1C | – | > 100 | – | > 100 | – | > 100 | – | > 100 | – | > 100 | – | > 100 | – | > 100 | – | > 100 | – | > 100
